{"source": "patent US11351271B2", "about": "“RNA-based logic circuits with RNA binding proteins, aptamers and small molecules” (priority 2014, dated 2022)", "key": {"[1]": {"system": "DDe (human estrogen receptor ligand binding domain) fused to Fluc2", "conditions": "C2C12"}, "DDd-L7Ae [2]": {"system": "DDd-L7Ae", "assay": "DDd-L7Ae OFF switch on replicon in myotubes differentiated from C2C12", "format": "cell-based"}, "DDd-L7Ae [3]": {"system": "DDd-L7Ae"}}}
{"smiles": "CC/C(=C(\\c1ccc(O)cc1)c1ccc(OCCN(C)C)cc1)c1ccccc1", "note": "[4-OHT, 4-hydroxytamoxifin]", "values": [{"measurement": "Increase of DDe-Fluc2 expression compared to no small molecule", "setting": "[1]", "value": 6.4, "unit": "fold"}]}
{"smiles": "O=C1Nc2ccc3ncsc3c2/C1=C/c1cnc[nH]1", "note": "[C16]", "values": [{"measurement": "Effect on expression and fold change of the DDd-L7Ae circuit", "setting": "DDd-L7Ae [2]; myotubes", "value": "increase expression and overall fold change"}]}
{"smiles": "COc1cc(Cc2cnc(N)nc2N)cc(OC)c1OC", "note": "[TMP, trimethoprim]", "values": [{"measurement": "Repression of reporter upon addition of TMP", "setting": "DDd-L7Ae [3]", "value": 22.5, "unit": "fold"}, {"measurement": "Decrease in expression after addition of TMP", "setting": "DDd-L7Ae [2]; mouse myotubes, optimized circuit with PKR inhibitors", "value": 15, "unit": "fold"}]}
